Experimental data as given in US20230391775A1, “SUBSTITUTED DIARYLAMINE COMPOUND, PHARMACEUTICAL COMPOSITION THEREOF, PREPARATION METHOD THEREFOR, AND USE THEREOF” (SUZHOU YABAO PHARMACEUTICAL R&D CO., LTD., priority 2020, published 2023).

Legend:
[1] = Drug tissue distribution assay: plasma pharmacokinetics; assay type: in vivo; conditions: mice, single oral intragastric 30 mg/kg
Description: (§1) Test sample: compound 4, purity 99%
(§2) Preparation of test sample: 22.73 mg of compound 4 was weighed and placed in a mortar (according to the purity of 99%), and a small amount of 0.5% CMC-Na was added followed by full grinding. The mixture was then transferred to a container; the mortar was washed for 4 times; the washing solution was transferred to the container, followed by the addition of 0.5% CMC-Na until the volume of the reaction solution was 30 mL; and then a test sample suspension with a concentration of […] was prepared. The suspension was stirred with a magnetic stirrer at a rotation speed of 1200 rpm for at least 15 min prior to sampling for analysis and administration, with fresh preparation just prior to use.
(§3) Route of administration: oral intragastric administration
(§4) Frequency and dose of administration: single administration at 30 mg/kg (40 mL/kg)
(§5) After drug administration, 0.4 mL of blood was collected from the heart of each group of animals at corresponding time points of 0.25 h, 0.5 h, 1 h, 2 h, 4 h, 6 h, 8 h, and 24 h, respectively, the animals were anesthetized by intraperitoneal injection of 50 mg/kg Zoletil, and then put to death by bleeding. The brain, lung, and kidney of each animal were taken out, washed with normal saline, dried off with filter paper, and put into a cryopreservation tube. The cryopreservation tube was temporarily placed in dry ice, and stored at −60° C. or below for 12 h.
(§6) The collected blood was anticoagulated with EDTA-K2, then temporarily placed in wet ice, and then centrifuged for 10 min at 4° C. and at 2600 g within 2 h. The plasma was temporarily placed in dry ice, and stored in a refrigerator at −60° C. or below within 14 h.
(§7) Analytical method: The drug concentrations in plasma and brain tissue were measured by the following LC-MS/MS method. • Instrument: Shimadzu LC-MS/MS (Model: LCMS-8060); • Chromatographic column: GL Sciences Inc., InertSustain, C18, 3 μm, 2.1×50 mm; • Ion detection: positive ion mode, m/z 453.10/338.05; • Mobile phase A: aqueous solution containing 0.1% TFA; mobile phase B: methanol solution containing 0.1% TFA;
(§8) Pharmacokinetic parameter evaluation index: pharmacokinetic parameters were calculated in a non-compartmental model using WinNonlin 6.4.

LRRK2 G2019S = LRRK2 G2019S (Homo sapiens (Human), UniProt Q5S007, G2019S); assay: Adapta kinase assay (LRRK2_IC50 assay); assay type: biochemical; conditions: Adapta TR-FRET, 1 h, room temperature
Description: In the Adapta™ kinase assay method (LRRK2_IC50 assay): the kinase reaction buffer contained kinase buffer S (Life Technologies, PV5213) and 2 mM DTT (Life Technologies, P2325). The kinases LRRK2 G2019S protein (PV4881) and ERM (LRRKtide, PV5093) were derived from Life Technologies. The Adapta™ universal kinase assay kit (Life Technologies, PV5099) contained the following components: Adapta™ Eu-anti-ADP antibody (PV5097; 4 μg); 10 μM AlexaFluor®647 ADP tracer (PV5098; 200 pmol); TR-FRET dilution buffer (PV3574; 100 mL); kinase quench buffer (P2825; 1 mL); 10 mM ATP (PV3227; 500 μL); and 10 mM ADP (PV5096; 500 μL). LRRK2-IN-1 (1234480-84-2, HY-10875) was derived from MedChem Express.
Adapta™ Kinase Assay Method
Adapta® universal kinase assay method is a uniform fluorescence-based immunoassay for detecting ADP. In contrast to ATP consumption assay, Adapta® assay method was very sensitive to ADP formation, with most signal changes occurring when initially 10-20% ATP was converted to ADP. This made Adapta® universal kinase assay method very suitable for low-activity kinases.
All assays were performed at room temperature (about 21° C.) and were linearly related to time and enzyme concentration under the conditions used. 1× kinase reaction buffer was prepared from 5× kinase buffer S stock solution (listed above), and 10 mL of 1× kinase reaction buffer was prepared by the addition of 2 mL of 5× stock solution to 8 mL of H2O. To the 1× kinase reaction buffer was added 20 μL of 1 M DTT.
A kinase reaction was performed in a low-volume 384-well plate in a volume of 10 μL. Typically, a Greiner plate was used (Catalog #3674 #, low volume, white wall, 784075). Other untreated assay plates that were not tested could also be suitable. The substrate concentration in the assay was 100 μM, and the 1× kinase reaction buffer consisted of 50 mM Tris-HCl (pH 8.5), 10 mM MgCl2, 1 mM EGTA, 0.01% Brij-35 and 2 mM DTT, as well as any other additives that could be necessary for the particular kinase. The kinase reaction was allowed to proceed for 1 h at room temperature, followed by the addition of a formulation of kinase quenching buffer (EDTA; 30 mM), Eu-labeled antibody (6 nM), and tracer (18.9 nM) in TR-FRET dilution buffer (5 μL). The final concentration of the antibody in the assay wells was 2 nM, the final concentration of the tracer was 6.3 nM, and the final concentration of EDTA was 10 mM. The plate was allowed to equilibrate at room temperature for at least 30 min and then read on a plate reader configured for Adapta™ TR-FRET.
The data provided in this document were generated by using BMG LABTECH PHERAstar plate reader and using appropriate filters and instrument settings for Adapta™. Test compounds were screened in wells with 1% DMSO (final). For 8-point titration, a 5-fold serial dilution was made on the basis of a starting concentration.

[2] = Drug tissue distribution assay: brain tissue pharmacokinetics / blood-brain barrier permeability; assay type: in vivo; conditions: mice, single oral intragastric 30 mg/kg
Description: as §1, §2, §3, §4, §5, §6, §7, §8

Chain of LRRK2 G2019S (Q5S007 whole entry G2019S): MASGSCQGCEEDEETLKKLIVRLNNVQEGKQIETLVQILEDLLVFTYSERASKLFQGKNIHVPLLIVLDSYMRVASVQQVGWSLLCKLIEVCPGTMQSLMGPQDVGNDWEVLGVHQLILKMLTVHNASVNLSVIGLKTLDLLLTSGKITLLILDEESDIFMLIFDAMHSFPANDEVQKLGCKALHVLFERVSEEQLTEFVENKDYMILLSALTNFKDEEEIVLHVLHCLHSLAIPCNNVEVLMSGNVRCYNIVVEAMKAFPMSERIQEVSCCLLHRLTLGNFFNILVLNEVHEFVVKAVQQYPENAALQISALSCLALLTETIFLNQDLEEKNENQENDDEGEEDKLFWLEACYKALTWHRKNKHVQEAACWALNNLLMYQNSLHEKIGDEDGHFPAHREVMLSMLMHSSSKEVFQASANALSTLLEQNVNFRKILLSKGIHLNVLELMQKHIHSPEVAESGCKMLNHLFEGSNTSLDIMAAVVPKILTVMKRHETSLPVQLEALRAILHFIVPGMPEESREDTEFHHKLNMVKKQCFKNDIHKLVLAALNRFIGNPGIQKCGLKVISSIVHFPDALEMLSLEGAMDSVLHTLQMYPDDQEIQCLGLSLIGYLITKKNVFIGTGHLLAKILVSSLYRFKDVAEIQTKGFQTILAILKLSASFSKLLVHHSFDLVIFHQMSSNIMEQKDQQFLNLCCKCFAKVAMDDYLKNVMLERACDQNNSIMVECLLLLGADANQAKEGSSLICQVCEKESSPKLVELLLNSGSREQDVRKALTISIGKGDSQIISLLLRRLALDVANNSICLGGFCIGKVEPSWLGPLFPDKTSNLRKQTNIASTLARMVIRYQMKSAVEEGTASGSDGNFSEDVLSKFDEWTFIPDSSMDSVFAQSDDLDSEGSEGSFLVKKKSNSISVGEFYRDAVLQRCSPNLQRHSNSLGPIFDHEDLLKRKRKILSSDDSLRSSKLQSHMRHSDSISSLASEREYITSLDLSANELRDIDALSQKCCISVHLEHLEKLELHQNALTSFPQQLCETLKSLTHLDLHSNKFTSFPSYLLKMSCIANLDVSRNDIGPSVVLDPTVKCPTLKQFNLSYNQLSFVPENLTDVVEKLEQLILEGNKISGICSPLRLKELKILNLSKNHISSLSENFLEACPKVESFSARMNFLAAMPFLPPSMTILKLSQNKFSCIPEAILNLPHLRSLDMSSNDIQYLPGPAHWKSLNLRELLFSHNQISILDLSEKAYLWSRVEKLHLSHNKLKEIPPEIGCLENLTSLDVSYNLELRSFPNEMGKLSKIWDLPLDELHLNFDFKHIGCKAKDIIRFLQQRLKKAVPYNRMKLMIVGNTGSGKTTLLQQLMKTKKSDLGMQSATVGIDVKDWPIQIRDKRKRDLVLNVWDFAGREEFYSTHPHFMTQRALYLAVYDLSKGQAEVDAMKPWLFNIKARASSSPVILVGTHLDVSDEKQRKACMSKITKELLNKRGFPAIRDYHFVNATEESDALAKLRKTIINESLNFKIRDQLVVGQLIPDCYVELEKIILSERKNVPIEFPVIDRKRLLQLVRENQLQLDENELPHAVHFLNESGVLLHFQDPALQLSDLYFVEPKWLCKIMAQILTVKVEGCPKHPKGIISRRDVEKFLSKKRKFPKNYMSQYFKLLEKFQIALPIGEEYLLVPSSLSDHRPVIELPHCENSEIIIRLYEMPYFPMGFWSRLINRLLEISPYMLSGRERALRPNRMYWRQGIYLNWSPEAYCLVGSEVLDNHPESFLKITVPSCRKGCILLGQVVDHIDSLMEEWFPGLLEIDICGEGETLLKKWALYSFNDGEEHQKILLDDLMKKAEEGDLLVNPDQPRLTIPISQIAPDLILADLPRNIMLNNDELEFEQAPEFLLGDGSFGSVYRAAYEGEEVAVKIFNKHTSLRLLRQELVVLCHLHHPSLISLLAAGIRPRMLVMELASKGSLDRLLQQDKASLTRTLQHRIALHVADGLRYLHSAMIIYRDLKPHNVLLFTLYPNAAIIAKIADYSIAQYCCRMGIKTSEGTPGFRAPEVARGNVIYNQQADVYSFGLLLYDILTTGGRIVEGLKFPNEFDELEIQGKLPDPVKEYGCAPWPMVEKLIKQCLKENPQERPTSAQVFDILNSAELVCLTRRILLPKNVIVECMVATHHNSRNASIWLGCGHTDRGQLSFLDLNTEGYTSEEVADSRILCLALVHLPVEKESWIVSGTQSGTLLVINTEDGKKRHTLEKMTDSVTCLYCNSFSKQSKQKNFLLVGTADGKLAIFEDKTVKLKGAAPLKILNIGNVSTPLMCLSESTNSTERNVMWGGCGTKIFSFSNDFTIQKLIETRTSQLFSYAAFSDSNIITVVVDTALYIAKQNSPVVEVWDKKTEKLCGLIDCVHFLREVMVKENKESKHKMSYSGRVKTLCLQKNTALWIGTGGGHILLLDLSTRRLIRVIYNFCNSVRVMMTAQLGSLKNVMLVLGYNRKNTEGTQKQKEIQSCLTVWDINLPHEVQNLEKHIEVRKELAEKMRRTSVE

CCOc1nc(Nc2ccc(C(N3CCOCC3)C(F)(F)F)cc2OC)nc2[nH]ccc12 (single isomer, unassigned) [Compound 4, 4-ethoxy-N-(2-methoxy-4-(2,2,2-trifluoro-1-morpholinoethyl)phenyl)-7H-pyrrolo[2,3-d]pyrimidin-2-amine]
AUC0-t [1]: 3248 ng · h · mL^−l | AUC0-∞ [1]: 3257 ng · h · mL^−l | Cmax [1]: 597 ng · mL^−l | Kel [1]: 0.247 h^−l | CL/F ([1]; mouse): 154 mL/min/kg | Tmax ([1]; mouse): 1 h | half-life ([1]; mouse): 2.8 h | MRT last ([1]; mouse, read-out: MRT0-t): 4.5 h | MRT inf ([1]; mouse, read-out: MRT0-∞): 4.56 h | Vd/F ([1]; mouse, read-out: Vz/F): 37.3 L/kg | IC50 (LRRK2 G2019S): 17 nM | AUC0-t ([2]; brain tissue): 6457 ng · h · g^−l | AUC0-∞ ([2]; brain tissue): 7409 ng · h · g^−l | Cmax ([2]; brain tissue): 1898 ng · g^−l | blood-brain barrier permeability ([2]; result in words): excellent blood-brain barrier permeability | Kp ([2]; mouse, brain / plasma, read-out: AUCbrain/AUCplasma): ~2 | Tmax ([2]; mouse, brain tissue): 1 h
